Laboratory results as given in PubChem BioAssay AID272 (DTP/NCI, 2004).
Records with an inconclusive call do not appear.

System: Lewis lung carcinoma i.m., BDF1 mice, T/C %
Test: NCI In Vivo Anticancer Drug Screen. Data for tumor model Lewis Lung Carcinoma (intramuscular) in B6D2F1 (BDF1) mice
Outline: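 Value is the ratio of a treated-group measurement (T) to the matching vehicle-control measurement (C), using either survival or tumour size in mice bearing transplanted tumours.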

[1] = endpoint: mean tumor weight (est.), dose: 25.0 mg/kg/injection, schedule: Q01DX011 (ip), vehicle: saline with Tween-80, higher = larger tumour
[2] = endpoint: mean tumor weight (est.), dose: 50.0 mg/kg/injection, schedule: Q01DX011 (ip), vehicle: saline with Tween-80, higher = larger tumour
[3] = endpoint: mean tumor weight (est.), dose: 100.0 mg/kg/injection, schedule: Q01DX011 (ip), vehicle: saline with Tween-80, higher = larger tumour
[4] = endpoint: median survival time, dose: 25.0 mg/kg/injection, schedule: Q01DX011 (ip), vehicle: saline with Tween-80, higher = longer survival
[5] = endpoint: median survival time, dose: 50.0 mg/kg/injection, schedule: Q01DX011 (ip), vehicle: saline with Tween-80, higher = longer survival
[6] = endpoint: mean tumor weight (est.), dose: 75.0 mg/kg/injection, schedule: Q01DX011 (ip), vehicle: saline, higher = larger tumour
[7] = endpoint: median survival time, dose: 75.0 mg/kg/injection, schedule: Q01DX011 (ip), vehicle: saline, higher = longer survival

Nc1ncnc2c1ncn2Cc1ccccc1
T/C (endpoint: mean tumor weight (est.), dose: 12.5 mg/kg/injection, schedule: Q01DX011 (ip), vehicle: saline with Tween-80, higher = larger tumour): 101 % of control | T/C [1]: 102 % of control | T/C [2]: 76 % of control | T/C [3]: 67 % of control | T/C (endpoint: median survival time, dose: 12.5 mg/kg/injection, schedule: Q01DX011 (ip), vehicle: saline with Tween-80, higher = longer survival): 89 % of control | T/C [4]: 100 % of control | T/C [5]: 93 % of control | T/C (endpoint: median survival time, dose: 100.0 mg/kg/injection, schedule: Q01DX011 (ip), vehicle: saline with Tween-80, higher = longer survival): 97 % of control

COc1cc2c(c(OC)c1OC)-c1ccc(OC)c(=O)cc1[C@@H](NC=O)CC2
T/C (endpoint: mean tumor weight (est.), dose: 0.25 mg/kg/injection, schedule: Q01DX011 (ip), vehicle: saline, higher = larger tumour): 90 % of control | T/C (endpoint: mean tumor weight (est.), dose: 0.5 mg/kg/injection, schedule: Q01DX011 (ip), vehicle: saline, higher = larger tumour): 73 % of control | T/C (endpoint: mean tumor weight (est.), dose: 1.0 mg/kg/injection, schedule: Q01DX011 (ip), vehicle: saline, higher = larger tumour): 49 % of control | T/C (endpoint: median survival time, dose: 0.25 mg/kg/injection, schedule: Q01DX011 (ip), vehicle: saline, higher = longer survival): 90 % of control | T/C (endpoint: median survival time, dose: 0.5 mg/kg/injection, schedule: Q01DX011 (ip), vehicle: saline, higher = longer survival): 116 % of control | T/C (endpoint: median survival time, dose: 1.0 mg/kg/injection, schedule: Q01DX011 (ip), vehicle: saline, higher = longer survival): 88 % of control

CC(=O)n1cc(F)c(=O)[nH]c1=O
T/C (endpoint: median survival time, dose: 6.0 mg/kg/injection, schedule: Q01DX011 (ip), vehicle: saline, higher = longer survival): 98 % of control | T/C (endpoint: median survival time, dose: 12.0 mg/kg/injection, schedule: Q01DX011 (ip), vehicle: saline, higher = longer survival): 111 % of control | T/C (endpoint: median survival time, dose: 24.0 mg/kg/injection, schedule: Q01DX011 (ip), vehicle: saline, higher = longer survival): 109 % of control

CCN(CC)CCNc1ccc(CO)c2sc3ccccc3c(=O)c12
T/C (endpoint: mean tumor weight (est.), dose: 18.75 mg/kg/injection, schedule: Q01DX011 (ip), vehicle: saline, higher = larger tumour): 110 % of control | T/C (endpoint: mean tumor weight (est.), dose: 37.5 mg/kg/injection, schedule: Q01DX011 (ip), vehicle: saline, higher = larger tumour): 56 % of control | T/C [6]: 19 % of control | T/C (endpoint: median survival time, dose: 18.75 mg/kg/injection, schedule: Q01DX011 (ip), vehicle: saline, higher = longer survival): 105 % of control | T/C (endpoint: median survival time, dose: 37.5 mg/kg/injection, schedule: Q01DX011 (ip), vehicle: saline, higher = longer survival): 107 % of control | T/C [7]: 113 % of control

CN(C)c1nc(N(C)C)nc(N(C)C)n1
T/C [1]: 68 % of control | T/C [2]: 97 % of control | T/C [3]: 37 % of control | T/C (endpoint: mean tumor weight, dose: 62.5 mg/kg/injection, schedule: Q01DX011 (ip), vehicle: steriod suspending solution, higher = larger tumour): 68 % of control | T/C (endpoint: mean tumor weight, dose: 125.0 mg/kg/injection, schedule: Q01DX011 (ip), vehicle: steriod suspending solution, higher = larger tumour): 63 % of control | T/C (endpoint: median survival time, dose: 62.5 mg/kg/injection, schedule: Q01DX011 (ip), vehicle: steriod suspending solution, higher = longer survival): 100 % of control | T/C (endpoint: median survival time, dose: 125.0 mg/kg/injection, schedule: Q01DX011 (ip), vehicle: steriod suspending solution, higher = longer survival): 104 % of control

O=C1C=C(N2CC2)c2ccccc2C1=O
T/C (endpoint: mean tumor weight (est.), dose: 5.0 mg/kg/injection, schedule: Q01DX011 (ip), vehicle: saline, higher = larger tumour): 74 % of control | T/C (endpoint: mean tumor weight (est.), dose: 10.0 mg/kg/injection, schedule: Q01DX011 (ip), vehicle: saline, higher = larger tumour): 58 % of control | T/C (endpoint: median survival time, dose: 5.0 mg/kg/injection, schedule: Q01DX011 (ip), vehicle: saline, higher = longer survival): 100 % of control | T/C (endpoint: median survival time, dose: 10.0 mg/kg/injection, schedule: Q01DX011 (ip), vehicle: saline, higher = longer survival): 100 % of control

C=C(C(=O)OC1CC2CCC(C1)N2C)c1ccccc1 (stereo unspecified)
T/C (endpoint: median survival time, dose: 7.5 mg/kg/injection, schedule: Q01DX011 (ip), vehicle: saline, higher = longer survival): 119 % of control

C[C@H]1CN1C1=CC(=O)C(N2C[C@@H]2C)=CC1=O
T/C (endpoint: median survival time, dose: 0.5 mg/kg/injection, schedule: Q01DX011 (ip), vehicle: saline with Tween-80, higher = longer survival): 102 % of control | T/C (endpoint: median survival time, dose: 1.0 mg/kg/injection, schedule: Q01DX011 (ip), vehicle: saline with Tween-80, higher = longer survival): 113 % of control | T/C (endpoint: median survival time, dose: 4.0 mg/kg/injection, schedule: Q01DX011 (ip), vehicle: saline with Tween-80, higher = longer survival): 108 % of control

CS(=O)(=O)c1cc(C(F)(F)F)cc([N+](=O)[O-])c1Cl
T/C [1]: 108 % of control | T/C [2]: 63 % of control | T/C [4]: 115 % of control | T/C [5]: 111 % of control

COc1ccc2nc3cc(Cl)ccc3c(NCCO)c2c1
T/C (endpoint: mean tumor weight (est.), dose: 34.37 mg/kg/injection, schedule: Q01DX011 (ip), vehicle: saline with Tween-80, higher = larger tumour): 19 % of control | T/C (endpoint: mean tumor weight (est.), dose: 68.75 mg/kg/injection, schedule: Q01DX011 (ip), vehicle: saline with Tween-80, higher = larger tumour): 55 % of control | T/C (endpoint: median survival time, dose: 34.36 mg/kg/injection, schedule: Q01DX011 (ip), vehicle: saline with Tween-80, higher = longer survival): 91 % of control | T/C (endpoint: median survival time, dose: 68.75 mg/kg/injection, schedule: Q01DX011 (ip), vehicle: saline with Tween-80, higher = longer survival): 96 % of control

CC(C)[C@](O)(C(=O)OCC1=CC[N+]2([O-])CC[C@@H](O)[C@@H]12)[C@H](C)O (stereo partly specified)
T/C (endpoint: mean tumor weight (est.), dose: 200.0 mg/kg/injection, schedule: Q01DX011 (ip), vehicle: saline, higher = larger tumour): 76 % of control | T/C (endpoint: mean tumor weight (est.), dose: 400.0 mg/kg/injection, schedule: Q01DX011 (ip), vehicle: saline, higher = larger tumour): 78 % of control | T/C (endpoint: mean tumor weight, dose: 50.0 mg/kg/injection, schedule: Q01DX011 (ip), vehicle: water, higher = larger tumour): 78 % of control | T/C (endpoint: mean tumor weight, dose: 100.0 mg/kg/injection, schedule: Q01DX011 (ip), vehicle: water, higher = larger tumour): 44 % of control | T/C (endpoint: mean tumor weight, dose: 200.0 mg/kg/injection, schedule: Q01DX011 (ip), vehicle: water, higher = larger tumour): 56 % of control | T/C (endpoint: mean tumor weight, dose: 400.0 mg/kg/injection, schedule: Q01DX011 (ip), vehicle: water, higher = larger tumour): 47 % of control | T/C (endpoint: median survival time, dose: 200.0 mg/kg/injection, schedule: Q01DX011 (ip), vehicle: saline, higher = longer survival): 101 % of control | T/C (endpoint: median survival time, dose: 400.0 mg/kg/injection, schedule: Q01DX011 (ip), vehicle: saline, higher = longer survival): 101 % of control

Cc1c(N)nc(C(CC(N)=O)NCC(N)C(N)=O)nc1C(=O)NC(C(=O)NC(C)C(O)C(C)C(=O)NC(C(=O)NCCc1nc(-c2nc(C(=O)NCCCCN=C(N)N)cs2)cs1)C(C)O)C(OC1OC(CO)C(O)C(O)C1OC1OC(CO)C(O)C(OC(N)=O)C1O)c1cnc[nH]1 (stereo unspecified)
T/C (endpoint: median survival time, dose: 3.9 mg/kg/injection, schedule: Q01DX011 (ip), vehicle: saline, higher = longer survival): 122 % of control | T/C (endpoint: median survival time, dose: 6.5 mg/kg/injection, schedule: Q01DX011 (ip), vehicle: saline, higher = longer survival): 112 % of control | T/C (endpoint: median survival time, dose: 10.8 mg/kg/injection, schedule: Q01DX011 (ip), vehicle: saline, higher = longer survival): 150 % of control | T/C (endpoint: median survival time, dose: 18.0 mg/kg/injection, schedule: Q01DX011 (ip), vehicle: saline, higher = longer survival): 170 % of control | T/C (endpoint: median survival time, dose: 30.0 mg/kg/injection, schedule: Q01DX011 (ip), vehicle: saline, higher = longer survival): 168 % of control

O=c1[nH]cc(F)c(=O)n1C1OC(CO)C(O)C1O (stereo unspecified)
T/C [6]: 67 % of control | T/C (endpoint: mean tumor weight (est.), dose: 150.0 mg/kg/injection, schedule: Q01DX011 (ip), vehicle: saline, higher = larger tumour): 99 % of control | T/C (endpoint: mean tumor weight (est.), dose: 300.0 mg/kg/injection, schedule: Q01DX011 (ip), vehicle: saline, higher = larger tumour): 106 % of control | T/C (endpoint: mean tumor weight (est.), dose: 600.0 mg/kg/injection, schedule: Q01DX011 (ip), vehicle: saline, higher = larger tumour): 82 % of control | T/C (endpoint: mean tumor weight (est.), dose: 1200.0 mg/kg/injection, schedule: Q01DX011 (ip), vehicle: saline, higher = larger tumour): 84 % of control | T/C [7]: 107 % of control | T/C (endpoint: median survival time, dose: 600.0 mg/kg/injection, schedule: Q01DX011 (ip), vehicle: saline, higher = longer survival): 98 % of control | T/C (endpoint: median survival time, dose: 1200.0 mg/kg/injection, schedule: Q01DX011 (ip), vehicle: saline, higher = longer survival): 107 % of control

N[C@H](C(=O)O)[C@@H]1CC(Cl)=NO1
T/C (endpoint: median survival time, dose: 1.0 mg/kg/injection, schedule: Q01DX013 (ip), vehicle: saline, higher = longer survival): 101 % of control | T/C (endpoint: median survival time, dose: 2.0 mg/kg/injection, schedule: Q01DX013 (ip), vehicle: saline, higher = longer survival): 100 % of control

NCCCNCCSP(=O)(O)O
T/C (endpoint: median survival time, dose: 300.0 mg/kg/injection, schedule: Q01DX001 (ip), vehicle: saline, higher = longer survival): 102 % of control | T/C (endpoint: median survival time, dose: 500.0 mg/kg/injection, schedule: Q01DX001 (ip), vehicle: saline, higher = longer survival): 92 % of control
